SMILES strings stand for the structures. Converted amounts (≈) assume the structure as drawn. “And” between values parts separate entries of the source, which are not always exact repeats. Equal entries are not always repeated. Where two headings read alike, the source gives them in different places.

Assay [1] concerns the target T1, GyrA(S84L) + GyrB(wt) (Staphylococcus aureus, UniProt P20831, S84L).
T1 construct: made in house; host or cells: E. coli BL21(DE3)
As to the kind of experiment: DNA cleavage assay with mutant GyrA(S84L) and GyrB(wt). It counts as biochemical. An excerpt: E. coliBL21(DE3) (produced by Invitrogen) was transformed with pMAL-c2-gyrA mentioned above, with pMAL-c2-gyrB mentioned above, or with pMAL-c2-SAGAmut84 containing a mutant gyrA encoding the amino acid sequence of GyrA(wt) in which serine residue at the 84th position from the amino terminus is substituted with a leucine residue (see, Hiramatsu K., Igarashi M., Morimoto Y, Baba T., Umekita M., Akamatsu Y., Int. J. Antimicrob. Agents, 2012 June; 39(6), 478-85). To the culture medium of the resulting transformed Escherichia coli, 1 mM […] (produced by Wako Pure Chemical Industries) was added to induce expression of maltose-binding GyrA(wt), maltose-binding GyrB(wt), or maltose-binding mutant GyrA(S84L), and the bacterium was cultured overnight at 25° C. After completion of the culture, the cells were collected, and suspended in a buffer (20 mM Tris-HCl (pH 8.0), 200 mM sodium chloride, 1 mM ethylenediaminetetraacetic acid (EDTA), 1 mM dithiothreitol (DTT)), a protein extracting reagent (10× BugBuster (registered trademark), produced by Novagen) in a volume of 1/10 of the volume of the buffer, and 2.5 μL/10 mL of the buffer of Benzonase (registered trademark) nuclease (produced by Novagen) were added, the mixture was left standing at 25° C. for 30 minutes, and the cells were disrupted and lysed to obtain a disrupted cell suspension containing the maltose-binding GyrA(wt), maltose-binding GyrB(wt), or maltose-binding mutant GyrA(S84L).
Then, each disrupted cell suspension mentioned above was added to a column filled with an amylose resin covalently bound with maltose (produced by Novagen). A buffer (20 mM Tris-HCl (pH 8.0), 200 mM sodium chloride, 1 mM EDTA) containing 10 mM maltose was added to the column to elute the maltose-binding GyrA(wt), maltose-binding GyrB(wt), and maltose-binding mutant GyrA(S84L).
To each eluate, 4 units/1 mL of the eluate of protease (Factor Xa, produced by Amersham) was added, and the mixture was left standing at 25° C. for 3 hours and 30 minutes to cleave the maltose-binding proteins, GyrA(wt), GyrB(wt), and mutant GyrA(S84L) from the maltose-binding GyrA(wt), maltose-binding GyrB(wt), and maltose-binding mutant GyrA(S84L).
Then, GyrA(wt), GyrB(wt), and mutant GyrA(S84L) were concentrated by using an ultrafiltration unit (YM-50 Filter Unit, produced by Millipore).
The concentrated GyrA(wt), GyrB(wt), and mutant GyrA(S84L) were each suspended in a buffer (35 mM Tris-HCl (pH 7.5), 24 mM potassium chloride, 6 mM magnesium chloride, 1.8 mM spermidine, 0.36 mg/mL bovine serum albumin, 5 mM DTT, 50 volume % glycerol) at a concentration of 1 μg/μL for GyrA(wt), 2 μg/μL for GyrB(wt), or 1 μg/μL for mutant GyrA(S84L).
An assay was performed in the same manner as that of the cleavage of the plasmid DNA with GyrA(wt) and GyrB(wt) mentioned above, provided that 0.15 μL of an enzyme solution of mutant GyrA(S84L) and 0.2 μL of the enzyme solution of GyrB(wt) were added instead of […] of the enzyme solution of GyrA(wt) and 0.2 μL of the enzyme solution of GyrB(wt). In FIGS. 3 and 4, the symbols “S”, “L”, and “N” have the same meanings as those explained for FIGS. 1 and 2.
IC50 value of levofloxacin or apigenin was also calculated from the visualized images shown in FIGS. 3 and 4 in the same manner as that used for the calculation using the results shown in FIGS. 1 and 2.
The DNA cleavage assay was performed with M-246 in the same manner as that used in Example 4.

The subject of assay [2] is S. aureus FDA209P (ATCC 6538P). The experiment in a line: microbe, parasite or virus in culture. The settings on record: Staphylococcus aureus. It counts as cell-based, Staphylococcus aureus. The method in brief: (§1)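 Overnight TSB cultures at 37 °C adjusted to A578 0.3, diluted 500-fold in CAMHB and mixed 1:1 with compound in CAMHB; static overnight incubation at 37 °C. MIC reported in mg/L; Mu50 NR-1 also tested in some runs.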

Assay [3] has as its system S. aureus Mu50. The experiment in a line: microbe, parasite or virus in culture. It counts as cell-based, Staphylococcus aureus. The settings on record: for MIC ratio: (MIC value for S. aureus FDA209P)/(MIC value for S. aureus Mu50); for MIC: Staphylococcus aureus. The gist of the method: as §1
Assay [4] relates to S. aureus Mu50 NR1-1. The experiment in a line: MIC by broth microdilution, S. aureus Mu50 NR1-1. It counts as cell-based. The note with it: Staphylococcus aureus, MU50NR11; Example 3, Table 13; read-out: MIC (mg/L) Mu50 NR1-1 (S80F, w). As to the method: MIC values of the flavones and quinolone for the strains were measured in the same manners as those of Example 1, except that S. aureus Mu50 NR-1 was also used as Staphylococcus aureus in addition to S. aureus FDA209P and S. aureus Mu50, cell suspensions of the strains were prepared.
S. aureus Mu50 NR1-1 mentioned in Table 13 is a strain selected stepwise from the clinically isolated S. aureus Mu50 strain with deoxynybomycin, and it has a topoisomerase IV encoded by parC in which a […] (see, Hiramatsu K. et al., J. Antimicrob. Agents, 2012, June; 39 (6), 478-85).
In Table 13, the descriptions in the parentheses after the strains indicate the mutated amino acid residue and its position, as represented by (the mutation of topoisomerase IV resulting from the mutation of parCand the mutation of DNA gyrase resulting from the mutation of gyrA). The character “w” means wild-type, representing without mutation.
For orientation: Dilution methods test growth across graded concentrations, often in twofold steps.

Where [5] appears, read: Example 2, Table 12, read-out: MIC (mg/L) S. aureus FDA209P.
The mark [6] stands for this setting: Example 3, Table 13, read-out: MIC (mg/L) FDA209P (w, w).
The mark [7] stands for this setting: MU50, read-out: MIC (mg/L) S. aureus Mu50, Example 2, Table 12.

For `C[C@H]1COc2c(N3CCN(C)CC3)c(F)cc3c(=O)c(C(=O)O)cn1c23` [Levofloxacin, levofloxacin, reference compound], the IC50 in assay [1] (Example 4, Table 15, from ratio of cleaved DNA, read-out: IC50 (μg/mL) GyrA(S84L) + GyrB(wt)) was greater than 88.6 µM. For the same molecule, the MIC in assay [2] (setting [5]) was 0.125 mg/L (≈ 0.346 µM); in assay [2] (setting [6]), 0.125 mg/L (≈ 0.346 µM); in assay [3] (setting [7]) it was 8 mg/L (≈ 22.1 µM); in assay [4], 1 mg/L (≈ 2.77 µM). Besides, the MIC ratio in assay [3] amounted to 0.016.

For the molecule `O=c1cc(-c2ccc(O)cc2)oc2cc(O)cc(O)c12` [No. 7, 4′,5,7-Trihydroxyflavone], in assay [1] (FIG. 3 and 4), the “inhibitory activity against the mutant DNA gyrase” value was “concentration-dependent inhibitory activity”. Moreover, the IC50 in assay [1] (IC50 (μg/mL) GyrA(S84L) + GyrB(wt), Example 4, Table 15, from ratio of cleaved DNA) is ~29.6 µM and 29.6 µM; in assay [1] (IC50 mutant GyrA(S84L) and GyrB(wt), value in μM) it was roughly 29.6 µM. For the same molecule, the MIC in assay [2] (Example 1, Tables 1 to 10, read-out: MIC (mg/L) FDA209P) is greater than 128 mg/L; in assay [2] (setting [5]), greater than 128 mg/L; in assay [2] (setting [6]) it was greater than 128 mg/L; in assay [3] (MU50, read-out: MIC (mg/L) Mu50, Example 1, Tables 1 to 10) it was 4 mg/L (≈ 14.8 µM); in assay [3] (setting [7]), 4 mg/L (≈ 14.8 µM); in assay [4], greater than 128 mg/L. In addition, the values for the MIC ratio in assay [3] and in assay [3] (listed as apigenin) were greater than 32 and no less than 32, respectively.

The values above are taken from patent US20150322033A1, “ANTIBACTERIAL AGENT” (priority 2012, published 2015).
